# According to patent publication US10322143B2, “Inhibitors of ADAMTS4 or ADAMTS5 for use in preventing or treating cardiac remodeling and chronic heart failure” (Universitetet i Oslo, priority 2013, dated 2019):
# Marks after values point to notes of the source that are not given here.
# Test system: myocardial infarction rats
# Assay: Myocardial infarction rat model: echocardiography, MRI and organ weights after PPS-treatment
# Type: in vivo
# Settings: for EDV (end-diastolic volume, MRI) / Heart weight / LAD (left atrial diameter) / LVDd (left ventricular diameter at diastole) / Lung weight / Max. syst velocity (maximum systolic velocity) / RV weight / VTI (velocity time integral): median (interquartile range)
# From the text: Male Wistar rats weighing 160-170 grams (approximately 7 weeks old) (Taconic, Skensved Denmark) underwent MI (myocardial infarction) by left coronary artery ligation as described previously (Sjaastad I, et al. J Appl Physiol 2000 October; 89(4):1445-54). In all surgical procedures performed, a mixture of 67% N2O, 28% O2, and 4% isoflurane in an anesthesia chamber was used for preoperative sedation. To maintain anesthesia preoperatively, a mixture of 69% N2O, 29% O2, and 2% isoflurane was given by the endotracheal tube and the animals were ventilated on a respirator (Zoovent, Triumph Technical Services, Milton Keynes, UK). Buprenorphine (0.2 mg/kg) was given as postoperative analgesia after MI. Rats were housed in cages (one or two rats in each cage) with Bee Kay bedding (Scanbur B K, Nittedal, Norway) in 55% humidity on a 12 h light/dark cycle, with food pellets (RM1, 801151, Scanbur B K) and water ad libitum.
# At day 0 to 3 (median 2) after surgery, infarct size was quantified by echocardiography using the Vevo2100 system (Visualsonics Inc, Canada) and magnetic resonance imaging (MRi) using a 9.4 T/210 mm/ASR horizontal bore magnet (Agilent Technologies, Inc., USA). Initially, echocardiography was performed to select moderate to large infarcts ranging approximately 40 to 50%. Thereafter, infarct sizes were exactly measured by late-enhancement gadolinium MRi analyses (Bohl S., et al. American Journal of Physiology, 2009; 296 (4): H1200-H1208) and stratified into small infarcts (stratum 1: <43%, stratum 2: 43-48%), and large infarcts (stratum 3: 48-53%, stratum 4: >53%). The rats in each MI stratum and sham group were randomized to receive intervention or control treatment. The intervention group was treated with 6 mg/kg of sodium PPS (Interfarm AS, Norway), while the control group received vehicle (0.9% NaCl), both injected subcutaneously every third day starting from post-operative day 8-10.
# After receiving PPS- or vehicle-treatment for 51 to 56 days (median 55 days), rats were sacrificed after examination by experienced investigators blinded to treatment group. In vivo heart function was evaluated as previously described with echocardiography (Sjaastad I, et al., J Appl Physiol 2000 October; 89(4):1445-54) and MRi (Espe E., Journal of Cardiovascular Magnetic Resonance 2013; 15(1):82). Thereafter, the heart and lung was excised under deep anesthesia, washed in saline and blotted dry to remove blood in the cardiac chambers. The heart chambers were separated by rapid dissection, before left ventricles were divided into infarcted and viable tissue. Lungs and cardiac tissue were snap-frozen in liquid nitrogen and stored at −70° C. until RNA and protein analyses.
# [1] = MI strata 1 + 2 (small infarcts) PPS, 6 mg/kg s.c. every third day from day 8-10
# [2] = MI strata 3 + 4 (large infarcts) PPS, 6 mg/kg s.c. every third day from day 8-10
# [3] = Sham PPS, 6 mg/kg s.c. every third day
# [4] = rats with large infarcts, PPS vs vehicle
substance,measurement,setting,value
pentosan polysulfate [PPS],side effects including hemorrhage,"MI rats, 6 mg/kg s.c. every third day, observed daily",no side effects
same,"EDV (end-diastolic volume, MRI)",[1],614 (524-707)
same,Heart weight,[1],1610 (1450-1760) mg
same,LAD (left atrial diameter),[1],5.32 (4.25-6.50) mm
same,LVDd (left ventricular diameter at diastole),[1],9.91 (9.50-10.29) mm
same,Lung weight,[1],1930 (1450-3420) mg
same,Max. syst velocity (maximum systolic velocity),[1],39.7 (28.3-57.5)
same,RV weight,[1],300 (180-345) mg
same,VTI (velocity time integral),[1],57.9 (50.8-69.6) mm
same,"EDV (end-diastolic volume, MRI)",[2],644 (552-709)
same,Heart weight,[2],1595 (1475-1710) mg
same,LAD (left atrial diameter),[2],6.88 (5.51-7.31) mm
same,LVDd (left ventricular diameter at diastole),[2],10.25 (9.51-10.75) mm
same,Lung weight,[2],2770 (1990-3385) mg
same,Max. syst velocity (maximum systolic velocity),[2],41.7 (31.2-52.0)*
same,RV weight,[2],395 (355-523) mg
same,VTI (velocity time integral),[2],69.8 (51.1-75.9)* mm
same,"EDV (end-diastolic volume, MRI)",[3],293 (256-346)
same,Heart weight,[3],1005 (980-1248) mg
same,LAD (left atrial diameter),[3],3.67 (3.45-3.73) mm
same,LVDd (left ventricular diameter at diastole),[3],6.91 (6.60-7.88) mm
same,Lung weight,[3],1255 (1158-1280) mg
same,Max. syst velocity (maximum systolic velocity),[3],64.0 (46.6-67.2)
same,RV weight,[3],168 (160-208) mg
same,VTI (velocity time integral),[3],58.5 (53.9-65.5) mm
same,reduction in heart weight,"rats with large infarcts, PPS vs corresponding vehicle-treated rats",~25%
same,maximum systolic velocity after PPS-treatment,[4],improved
same,reduction in left atrial diameter,[4],10%
same,reduction in lung weight,[4],1/3
same,velocity time integral after PPS-treatment,[4],improved
